ChEMBL document CHEMBL5543142, “Discovery of YFJ-36: Design, Synthesis, and Antibacterial Activities of Catechol-Conjugated β-Lactams against Gram-Negative Bacteria” (J Med Chem, 2024)

Experiments:
Pseudomonas aeruginosa [1] = assay: Antibacterial activity against IMP-4 producing multidrug-resistant Pseudomonas aeruginosa clinical isolate 17-13 assessed as inhibition of bacterial growth incubated for 18 to 20 hrs by two fold serial dilution assay; assay type: functional; conditions: time 18-20 hrs
Pseudomonas aeruginosa [2] = assay: Antibacterial activity against IMP-4 producing multidrug-resistant Pseudomonas aeruginosa clinical isolate 17-1 assessed as inhibition of bacterial growth incubated for 18 to 20 hrs by two fold serial dilution assay; assay type: functional; conditions: time 18-20 hrs
Acinetobacter baumannii [3] = assay: Antibacterial activity against OXA-23 producing multidrug-resistant Acinetobacter baumannii clinical isolate 17-3 assessed as inhibition of bacterial growth incubated for 18 to 20 hrs by two fold serial dilution assay; assay type: functional; conditions: time 18-20 hrs
Acinetobacter baumannii [4] = assay: Antibacterial activity against OXA-23 producing multidrug-resistant Acinetobacter baumannii clinical isolate 17-5 assessed as inhibition of bacterial growth incubated for 18 to 20 hrs by two fold serial dilution assay; assay type: functional; conditions: time 18-20 hrs
Acinetobacter baumannii [5] = assay: Antibacterial activity against OXA-23 producing multidrug-resistant Acinetobacter baumannii clinical isolate 17-2 assessed as inhibition of bacterial growth incubated for 18 to 20 hrs by two fold serial dilution assay; assay type: functional; conditions: time 18-20 hrs
Escherichia coli [6] = assay: Antibacterial activity against ESBL-producing multidrug-resistant Escherichia coli clinical isolate 14-4 assessed as inhibition of bacterial growth incubated for 18 to 20 hrs by two fold serial dilution assay; assay type: functional; conditions: time 18-20 hrs
Escherichia coli [7] = assay: Antibacterial activity against Escherichia coli ATCC35218 assessed as inhibition of bacterial growth incubated for 18 to 20 hrs by two fold serial dilution assay; assay type: functional; conditions: time 18-20 hrs
Klebsiella pneumoniae [8] = assay: Antibacterial activity against KPC-2 producing multidrug-resistant Klebsiella pneumoniae clinical isolate 15-5 assessed as inhibition of bacterial growth incubated for 18 to 20 hrs by two fold serial dilution assay; assay type: functional; conditions: time 18-20 hrs
Klebsiella pneumoniae [9] = assay: Antibacterial activity against KPC-2 producing multidrug-resistant Klebsiella pneumoniae clinical isolate 15-3 assessed as inhibition of bacterial growth incubated for 18 to 20 hrs by two fold serial dilution assay; assay type: functional; conditions: time 18-20 hrs
Klebsiella pneumoniae [10] = assay: Antibacterial activity against KPC-2 producing multidrug-resistant Klebsiella pneumoniae clinical isolate 15-2 assessed as inhibition of bacterial growth incubated for 18 to 20 hrs by two fold serial dilution assay; assay type: functional; conditions: time 18-20 hrs
Acinetobacter baumannii [11] = assay: Antibacterial activity against OXA-23 producing multidrug-resistant Acinetobacter baumannii clinical isolate 17-7 assessed as inhibition of bacterial growth incubated for 18 to 20 hrs by two fold serial dilution assay; assay type: functional; conditions: time 18-20 hrs
Pseudomonas aeruginosa [12] = assay: Antibacterial activity against IMP-4 producing multidrug-resistant Pseudomonas aeruginosa clinical isolate 19-1 assessed as inhibition of bacterial growth incubated for 18 to 20 hrs by two fold serial dilution assay; assay type: functional; conditions: time 18-20 hrs
Escherichia coli [13] = assay: Antibacterial activity against ESBL-producing multidrug-resistant Escherichia coli clinical isolate 14-2 assessed as inhibition of bacterial growth incubated for 18 to 20 hrs by two fold serial dilution assay; assay type: functional; conditions: time 18-20 hrs
Acinetobacter baumannii [14] = assay: Antibacterial activity against OXA-23 producing multidrug-resistant Acinetobacter baumannii clinical isolate 17-8 assessed as inhibition of bacterial growth incubated for 18 to 20 hrs by two fold serial dilution assay; assay type: functional; conditions: time 18-20 hrs
Pseudomonas aeruginosa [15] = assay: Antibacterial activity against IMP-4 producing multidrug-resistant Pseudomonas aeruginosa clinical isolate 19-17 assessed as inhibition of bacterial growth incubated for 18 to 20 hrs by two fold serial dilution assay; assay type: functional; conditions: time 18-20 hrs
Escherichia coli [16] = assay: Antibacterial activity against ESBL-producing multidrug-resistant Escherichia coli clinical isolate 14-1 assessed as inhibition of bacterial growth incubated for 18 to 20 hrs by two fold serial dilution assay; assay type: functional; conditions: time 18-20 hrs
Pseudomonas aeruginosa [17] = assay: Antibacterial activity against IMP-4 producing multidrug-resistant Pseudomonas aeruginosa clinical isolate 19-5 assessed as inhibition of bacterial growth incubated for 18 to 20 hrs by two fold serial dilution assay; assay type: functional; conditions: time 18-20 hrs
Acinetobacter baumannii [18] = assay: Antibacterial activity against OXA-23 producing multidrug-resistant Acinetobacter baumannii clinical isolate 17-6 assessed as inhibition of bacterial growth incubated for 18 to 20 hrs by two fold serial dilution assay; assay type: functional; conditions: time 18-20 hrs
Klebsiella pneumoniae [19] = assay: Antibacterial activity against KPC-2 producing multidrug-resistant Klebsiella pneumoniae clinical isolate 15-1 assessed as inhibition of bacterial growth incubated for 18 to 20 hrs by two fold serial dilution assay; assay type: functional; conditions: time 18-20 hrs
Acinetobacter baumannii [20] = assay: Antibacterial activity against OXA-23 producing multidrug-resistant Acinetobacter baumannii clinical isolate 15-4 assessed as inhibition of bacterial growth incubated for 18 to 20 hrs by two fold serial dilution assay; assay type: functional; conditions: time 18-20 hrs
[21] = AUC (0 to infinity) in ICR mouse at 20 mg/kg,iv administration measured upto 6 hrs by LC-MS/MS analysis; assay type: ADME, organism-based; conditions: in vivo
[22] = Clearance in ICR mouse at 20 mg/kg,iv administration measured upto 6 hrs by LC-MS/MS analysis; assay type: ADME, organism-based; conditions: in vivo
[23] = Volume of distribution at steady state in ICR mouse at 20 mg/kg,iv administration measured upto 6 hrs by LC-MS/MS analysis; assay type: ADME, organism-based; conditions: in vivo, read-out: Vdss
Acinetobacter baumannii [24] = assay: Antibacterial activity against OXA-23 producing multidrug-resistant Acinetobacter baumannii clinical isolate 15-5 assessed as inhibition of bacterial growth incubated for 18 to 20 hrs by two fold serial dilution assay; assay type: functional; conditions: time 18-20 hrs
Acinetobacter baumannii [25] = assay: Antibacterial activity against OXA-23 producing multidrug-resistant Acinetobacter baumannii clinical isolate 15-2 assessed as inhibition of bacterial growth incubated for 18 to 20 hrs by two fold serial dilution assay; assay type: functional; conditions: time 18-20 hrs
Acinetobacter baumannii [26] = assay: Antibacterial activity against OXA-23 producing multidrug-resistant Acinetobacter baumannii clinical isolate 15-3 assessed as inhibition of bacterial growth incubated for 18 to 20 hrs by two fold serial dilution assay; assay type: functional; conditions: time 18-20 hrs
[27] = MRT in ICR mouse at 20 mg/kg,iv administration measured upto 6 hrs by LC-MS/MS analysis; assay type: ADME, organism-based; conditions: in vivo
Acinetobacter baumannii [28] = assay: Antibacterial activity against OXA-23 producing multidrug-resistant Acinetobacter baumannii clinical isolate 15-1 assessed as inhibition of bacterial growth incubated for 18 to 20 hrs by two fold serial dilution assay; assay type: functional; conditions: time 18-20 hrs
[29] = Half life in ICR mouse at 20 mg/kg,iv administration measured upto 6 hrs by LC-MS/MS analysis; assay type: ADME, organism-based; conditions: in vivo
[30] = Plasma protein binding in mouse incubated for 35 mins by LC-MS/MS analysis; assay type: ADME, cell-free; conditions: read-out: PPB (converted)

Compound | MIC (Pseudomonas aeruginosa [1]) [µg/mL] | MIC (Pseudomonas aeruginosa [2]) [µg/mL] | MIC (Acinetobacter baumannii [3]) [µg/mL] | MIC (Acinetobacter baumannii [5]) [µg/mL] | MIC (Escherichia coli [6]) [µg/mL] | MIC (Escherichia coli [7]) [µg/mL] | MIC (Klebsiella pneumoniae [8]) [µg/mL] | MIC (Klebsiella pneumoniae [9]) [µg/mL] | MIC (Klebsiella pneumoniae [10]) [µg/mL] | MIC (Pseudomonas aeruginosa [12]) [µg/mL] | MIC (Escherichia coli [13]) [µg/mL] | MIC (Pseudomonas aeruginosa [15]) [µg/mL] | MIC (Escherichia coli [16]) [µg/mL] | MIC (Pseudomonas aeruginosa [17]) [µg/mL] | MIC (Klebsiella pneumoniae [19]) [µg/mL] | MIC (Acinetobacter baumannii [20]) [µg/mL] | MIC (Acinetobacter baumannii [24]) [µg/mL] | MIC (Acinetobacter baumannii [25]) [µg/mL] | MIC (Acinetobacter baumannii [26]) [µg/mL] | MIC (Acinetobacter baumannii [28]) [µg/mL] | further results
CC(C)[C@H](O/N=C(\C(=O)N[C@@H]1C(=O)N2C(C(=O)O)=C(CSCCNC(=O)c3ccc(O)c(O)c3Cl)CS[C@H]12)c1csc(N)n1)C(=O)O.O=C(O)C(F)(F)F | 0.125 | 8 | 4 | 4 | 0.125 | 0.06 | 4 | 4 | 1 | 1 | 1 | 0.25 | 0.125 | 0.5 | 1 |  |  |  |  |  | MIC (Acinetobacter baumannii [4]): 4 µg/mL; MIC (Acinetobacter baumannii [11]): 8 µg/mL; MIC (Acinetobacter baumannii [14]): 4 µg/mL; MIC (Acinetobacter baumannii [18]): 16 µg/mL
CC(C)[C@@H](O/N=C(\C(=O)N[C@@H]1C(=O)N2C(C(=O)O)=C(CSCCNC(=O)c3ccc(O)c(O)c3Cl)CS[C@H]12)c1csc(N)n1)C(=O)O.O=C(O)C(F)(F)F | 0.06 | 32 | 0.5 | 1 | 0.125 | 0.5 | 0.25 | 2 | 0.25 | 2 | 1 | 0.25 | 0.125 | 2 | 0.25 |  |  |  |  |  | MIC (Acinetobacter baumannii [4]): 2 µg/mL; MIC (Acinetobacter baumannii [11]): 4 µg/mL; MIC (Acinetobacter baumannii [14]): 1 µg/mL; MIC (Acinetobacter baumannii [18]): 2 µg/mL
Nc1nc(/C(=N/OC(C(=O)O)C2CCC(F)(F)CC2)C(=O)N[C@@H]2C(=O)N3C(C(=O)O)=C(CSCCNC(=O)c4ccc(O)c(O)c4Cl)CS[C@H]23)c(Cl)s1.O=C(O)C(F)(F)F (stereo not given in full) | 0.5 |  | 2 | 0.25 | 0.5 | 0.125 | 1 | 0.5 | 1 | 8 | 0.25 | 0.125 | 0.125 | 0.5 | 0.5 | 8 | 4 | 1 | 4 | 4 | AUC(0-inf) [21]: 4740 ng·h/mL; clearance [22]: 54.1 mL/min/kg; Vd [23]: 0.649 L/kg; MRT [27]: 0.18 h; half-life [29]: 0.34 h; fraction unbound at 35 min [30]: 0.031
CC(C)(C)C1CCC(C(O/N=C(\C(=O)N[C@@H]2C(=O)N3C(C(=O)O)=C(CSCCNC(=O)c4ccc(O)c(O)c4Cl)CS[C@H]23)c2csc(N)n2)C(=O)O)CC1.O=C(O)C(F)(F)F (stereo not given in full) | 4 | 4 |  |  | 0.25 | 0.06 | 1 | 2 | 1 |  | 0.5 | 0.5 | 0.125 |  | 1 | 8 | 8 | 8 | 8 | 8 | AUC(0-inf) [21]: 6670 ng·h/mL; clearance [22]: 58 mL/min/kg; Vd [23]: 7.23 L/kg; MRT [27]: 1.72 h; half-life [29]: 4.99 h
Nc1nc(/C(=N/OC(C(=O)O)C2CCCCC2)C(=O)N[C@@H]2C(=O)N3C(C(=O)O)=C(CSCCNC(=O)c4ccc(O)c(O)c4Cl)CS[C@H]23)cs1.O=C(O)C(F)(F)F (stereo not given in full) | 1 | 4 |  |  | 0.125 | 0.125 | 1 | 2 | 2 |  | 1 | 0.5 | 0.125 |  | 4 | 8 | 4 | 4 | 8 | 8 | AUC(0-inf) [21]: 3440 ng·h/mL; clearance [22]: 90.1 mL/min/kg; Vd [23]: 1.73 L/kg; MRT [27]: 0.3 h; half-life [29]: 0.7 h
Nc1nc(/C(=N/OC(C(=O)O)C2CCC(C(F)(F)F)CC2)C(=O)N[C@@H]2C(=O)N3C(C(=O)O)=C(CSCCNC(=O)c4ccc(O)c(O)c4Cl)CS[C@H]23)cs1.O=C(O)C(F)(F)F (stereo not given in full) | 0.125 | 1 |  |  | 0.25 | 0.06 | 1 | 1 | 1 |  | 1 | 0.5 | 0.25 |  | 1 | 8 | 2 | 2 | 4 | 4 | fraction unbound at 35 min [30]: 0.04
C[C@](O/N=C(\C(=O)N[C@@H]1C(=O)N2C(C(=O)O)=C(CSCCNC(=O)c3ccc(O)c(O)c3Cl)CS[C@H]12)c1nc(N)sc1Cl)(C(=O)O)C(F)(F)F.O=C(O)C(F)(F)F | 0.125 | 8 | 0.5 | 0.06 | ≤ 0.03 | 0.125 | 0.125 | 0.5 | 0.5 | 1 | 0.5 | 0.06 | 0.06 | 0.25 | 0.25 |  |  |  |  |  | MIC (Acinetobacter baumannii [4]): 0.125 µg/mL; MIC (Acinetobacter baumannii [11]): 0.5 µg/mL; MIC (Acinetobacter baumannii [14]): 0.125 µg/mL; MIC (Acinetobacter baumannii [18]): 0.5 µg/mL
Nc1nc(/C(=N/OC(C(=O)O)C2CCC(F)(F)CC2)C(=O)N[C@@H]2C(=O)N3C(C(=O)O)=C(CSCCNC(=O)c4ccc(O)c(O)c4Cl)CS[C@H]23)c(Br)s1.O=C(O)C(F)(F)F (stereo not given in full) | 0.06 |  | 4 | 0.125 | 0.06 | 0.06 | 0.25 | 0.5 | 1 | 8 | 0.125 | 0.125 | 0.125 | 0.25 | 0.5 | 4 | 4 | 0.5 | 1 | 2 | AUC(0-inf) [21]: 3910 ng·h/mL; clearance [22]: 92.9 mL/min/kg; Vd [23]: 9.48 L/kg; MRT [27]: 1.61 h; half-life [29]: 3.33 h
